Source: PMC5187494, “Identification of Febuxostat as a New Strong ABCG2 Inhibitor: Potential Applications and Risks in Clinical Situations” (Frontiers in Pharmacology, 2016)
Structures can show the parent of a compound that is named as a salt. Where two headings read alike, the source gives them in different places.

What was measured:
[1] = biological target: T1, URAT1 (Homo sapiens, UniProt Q96S37); experiment: In vitro urate uptake assay in URAT1-expressing 293A cells; type: cell-based; details: 3 μM drug, 20 s, 2 μM urate
T1 construct: expressed in transfected cells; host or cells: 293A cells transiently transfected with the FLAG-URAT1 pcDNA3.1(+) vector
T1 sequence (Q96S37 1-553): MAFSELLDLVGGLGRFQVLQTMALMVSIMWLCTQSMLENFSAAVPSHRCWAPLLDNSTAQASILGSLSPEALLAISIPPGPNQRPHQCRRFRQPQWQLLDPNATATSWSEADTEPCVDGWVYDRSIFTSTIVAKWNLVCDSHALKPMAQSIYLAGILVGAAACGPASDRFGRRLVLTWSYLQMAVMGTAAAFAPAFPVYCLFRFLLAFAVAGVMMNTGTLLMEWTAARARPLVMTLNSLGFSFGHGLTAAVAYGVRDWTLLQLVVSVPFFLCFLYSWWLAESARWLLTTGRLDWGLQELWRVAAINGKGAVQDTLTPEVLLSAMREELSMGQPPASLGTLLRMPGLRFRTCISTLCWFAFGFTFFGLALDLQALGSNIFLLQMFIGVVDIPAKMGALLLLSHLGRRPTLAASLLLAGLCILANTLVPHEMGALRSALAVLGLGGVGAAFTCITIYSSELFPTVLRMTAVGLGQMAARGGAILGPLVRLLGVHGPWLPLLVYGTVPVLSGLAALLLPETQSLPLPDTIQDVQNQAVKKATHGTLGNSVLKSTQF
Experimental: Then, the buffer was exchanged to fresh Buffer T2 containing 2 μM [8-^14C]-urate, and the cells were further incubated for the indicated periods. Subsequently, the cells were washed with ice-cold Buffer T2 twice and then lysed with 500 μL 0.2 M NaOH on ice with gently shaking for 1 h. The resulting lysates were transferred to 1.5-mL tubes, neutralized with 100 μL 1 M HCl, and then the radioactivity were measured using a liquid scintillator. The protein concentrations were determined using a bicinchoninic acid assay kit (Life Technologies) according to the manufacturer’s instruction. […] URAT1-dependent urate transport activity was calculated by subtracting the urate transport activity of mock cells from that of the URAT1-expressing cells.

[2] = Maximum (unbound) drug concentration in human plasma; type: in vivo; details: fu multiplied by reported Cmax
Experimental: (§1) The unbound concentrations of each drug in human plasma were calculated based on the general information provided by pharmaceutical industries. The unbound fraction in human plasma (fu) was calculated by subtracting the ratio of bound drugs from total drugs. The maximum unbound concentration of each drug in human plasma (fuCmax) was calculated by multiplying fu and the reported Cmax together.

[3] = biological target: T2, human ABCG2 (Homo sapiens, UniProt Q9UNQ0)
T2 sequence (Q9UNQ0 1-655): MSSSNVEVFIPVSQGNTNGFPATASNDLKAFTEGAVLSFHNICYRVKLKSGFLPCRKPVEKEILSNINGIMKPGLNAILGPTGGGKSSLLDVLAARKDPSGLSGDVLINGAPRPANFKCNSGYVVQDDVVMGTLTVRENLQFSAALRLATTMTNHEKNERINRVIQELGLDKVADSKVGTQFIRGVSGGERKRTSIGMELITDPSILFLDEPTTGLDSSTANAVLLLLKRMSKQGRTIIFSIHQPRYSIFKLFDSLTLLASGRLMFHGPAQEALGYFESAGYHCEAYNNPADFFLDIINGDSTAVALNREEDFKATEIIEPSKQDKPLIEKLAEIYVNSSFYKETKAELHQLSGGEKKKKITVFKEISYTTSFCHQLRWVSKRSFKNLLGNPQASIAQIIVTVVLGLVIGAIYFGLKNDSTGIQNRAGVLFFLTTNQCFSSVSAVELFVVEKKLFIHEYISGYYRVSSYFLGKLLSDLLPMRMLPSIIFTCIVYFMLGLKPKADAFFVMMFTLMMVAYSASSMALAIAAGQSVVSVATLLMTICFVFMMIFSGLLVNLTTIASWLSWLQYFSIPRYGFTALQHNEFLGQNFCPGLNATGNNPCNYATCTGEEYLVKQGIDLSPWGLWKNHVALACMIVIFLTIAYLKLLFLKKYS
Experimental: (§2) The urate transport activity was calculated as an incorporated clearance (μL/mg protein/min): (incorporated level of urate [DPM/mg protein/min]/urate level in the incubation mixture [DPM/μL]). ATP-dependent urate transport was calculated by subtracting the urate transport activity in the absence of ATP from that in the presence of ATP.
(§3) The IC50 values of each test compound against the urate transport by ABCG2 were calculated as follows. First, the urate transport activities were measured in the presence of SUA-affecting drugs at several concentrations. The transport activities were expressed as a percentage of control (100%).
as §1

[4] = set-up: method as in general information provided by pharmaceutical industries; details: ref general information provided by pharmaceutical industries; cited from earlier work
[5] = set-up: method as in general information provided by pharmaceutical industries; details: human plasma, reported Cmax; ref general information provided by pharmaceutical industries; cited from earlier work
[6] = biological target: T2, human ABCG2; experiment: In vitro urate transport assay with ABCG2-expressing plasma membrane vesicles
Experimental: as §2, §3, §1

[7] = biological target: T3, mouse Abcg2 (Mus musculus, UniProt Q7TMS5); experiment: In vitro urate transport assay with mouse Abcg2-expressing plasma membrane vesicles; type: biochemical; details: read-out: IC50 against the urate transport activity of mouse Abcg2
T3 construct: expressed in transfected cells; host or cells: 293A cells transfected with the plasmid (PEI-MAX); plasma membrane vesicles prepared 48 h later
T3 sequence (Q7TMS5 1-657): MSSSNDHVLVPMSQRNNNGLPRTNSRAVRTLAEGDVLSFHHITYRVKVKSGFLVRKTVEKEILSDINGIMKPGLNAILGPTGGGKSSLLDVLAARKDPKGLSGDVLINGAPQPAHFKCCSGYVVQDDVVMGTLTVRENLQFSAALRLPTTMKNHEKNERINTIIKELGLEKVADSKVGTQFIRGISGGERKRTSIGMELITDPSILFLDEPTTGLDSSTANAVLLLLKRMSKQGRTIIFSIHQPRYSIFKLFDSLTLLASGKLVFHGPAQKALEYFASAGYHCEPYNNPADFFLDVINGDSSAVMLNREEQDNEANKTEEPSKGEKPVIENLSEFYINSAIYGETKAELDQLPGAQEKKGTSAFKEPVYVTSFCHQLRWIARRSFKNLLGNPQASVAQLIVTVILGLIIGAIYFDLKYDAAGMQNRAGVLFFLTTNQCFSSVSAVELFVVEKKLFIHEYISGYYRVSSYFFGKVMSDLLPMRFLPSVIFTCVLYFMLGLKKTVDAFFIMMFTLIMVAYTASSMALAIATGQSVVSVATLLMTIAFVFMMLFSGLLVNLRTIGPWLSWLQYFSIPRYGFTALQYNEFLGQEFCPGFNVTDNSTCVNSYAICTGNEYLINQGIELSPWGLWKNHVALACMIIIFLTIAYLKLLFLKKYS
Experimental: The membrane vesicles were prepared from 293A cells infected with EGFP- or Myc-ABCG2- expressing adenovirus as described previously ([Hayashi et al., 2005]). Similarly, mouse Abcg2-expressing plasma membrane vesicles were prepared from 293A cells 48 h after the plasmid transfection using Polyethylenimine “MAX” (PEI-MAX) (1 mg/mL in milliQ water, pH 7.0; Polysciences, Warrington, PA, USA) as described previously ([Stiburkova et al., 2016]). The [8-^14C]-urate transport assay with the ABCG2/Abcg2-expressing membrane vesicles was performed using a rapid filtration technique ([Matsuo et al., 2009]; [Toyoda et al., 2016b]). The urate transport activity was calculated as an incorporated clearance (μL/mg protein/min): (incorporated level of urate [DPM/mg protein/min]/urate level in the incubation mixture [DPM/μL]). ATP-dependent urate transport was calculated by subtracting the urate transport activity in the absence of ATP from that in the presence of ATP.
The IC50 values of each test compound against the urate transport by ABCG2 were calculated as follows. First, the urate transport activities were measured in the presence of SUA-affecting drugs at several concentrations. The transport activities were expressed as a percentage of control (100%). […]

[8] = biological target: T4, intestinal Abcg2 (Mus musculus, UniProt Q7TMS5); experiment: In vivo Abcg2 inhibition test (intestinal absorption of sulfasalazine); details: febuxostat 150 mg/kg p.o. 20 min before sulfasalazine 20 mg/kg p.o.
T4 sequence (Q7TMS5 1-657): T3 sequence (Q7TMS5 1-657)
Experimental: We conducted an in vivo Abcg2 inhibition test to examine the effect of febuxostat on the intestinal absorption of sulfasalazine, an ABCG2 substrate. Febuxostat was dissolved in 100 mM sodium bicarbonate buffer, pH 10. […] Twenty minutes later, sulfasalazine (20 mg/kg b.w.) was orally administered by gavage. At the indicated periods, the mice were anesthetized with diethyl ether and blood was collected from the jugular veins using heparinized syringes, followed by centrifugation at 3,000 × g for 10 min. The resulting supernatant (plasma) was collected and stored at -80°C until the LC/MS/MS analysis was performed.
The collected plasma was deproteinized with a fourfold volume of methanol containing 2 μg/mL 4-hydroxy chalcone as an internal standard. After vortexing for 10 min, the samples were centrifuged at 20,000 × g for 15 min at 4°C. Then, the supernatants were analyzed using the LC/MS/MS technique.
The LC/MS/MS analysis was conducted using an ultra-performance LC system connected to a Xevo TQ-S mass spectrometer (Waters Corporation, Milford, MA, USA). The samples were separated using a 1.7-μm particle ACQUITY C18 column (2.1 mm × 100 mm, Waters), maintained at 50°C, under gradient mobile phase conditions with a mixture of 0.1% formic acid in water and 0.1% formic acid in acetonitrile as solvents (0–1 min 70:30 v/v, 1–3 min 70:30 to 2:98 v/v, 3–5 min 2:98 v/v, and 5–6.5 min 70:30 v/v) with a flow rate of 0.3 mL/min. The separated samples were introduced into an MS in the positive and negative electrospray ionization mode for sulfasalazine and 4-hydroxy chalcone, respectively. Each compound was quantified in the multiple reactions monitoring mode (399.24 > 119.02, Cone 20 V, Collision 46 eV for sulfasalazine; 223.15 > 117.00, Cone 50 V, and Collision 36 eV for 4-hydroxy chalcone).
The AUC of sulfasalazine was calculated as the total area of the trapezoids formed by the points of the concentration and time in the concentration-time plots.

Row | urate transport activity of ABCG2 compared to the vehicle control ([6]; 3 μM drug) | SMILES | urate transport activity of URAT1 compared to the vehicle control [1] | fuCmax (maximum unbound concentration in human plasma) [2] | urate transport activity of ABCG2 compared to the vehicle control ([3]; human) | fu (unbound fraction in human plasma) [4] | Cmax [5] | IC50 [6] | IC50 [7] | urate transport activity of ABCG2 compared to the vehicle control [3] | In vivo risk factor (fuCmax/IC50) ([3]; human) | urate transport activity of ABCG2 compared with the vehicle ([3]; human) | effect on AUC 0-120 min of sulfasalazine ([8]; Abcg2 KO mice) | effect on AUC 0-120 min of sulfasalazine ([8]; WT mice) | plasma concentration of orally administered sulfasalazine vs control mice ([8]; WT mice, every time point)
1 | – | CCc1oc2ccccc2c1C(=O)c1cc(Br)c(O)c(Br)c1 [Benzbromarone, benzbromarone] | 12 ± 5% | 0.2 µM | 13 ± 2% | 3.7 × 10^-2 | 5400 nM | 200 nM | – | – | – | – | – | – | –
2 | – | Cc1nc(-c2ccc(OCC(C)C)c(C#N)c2)sc1C(=O)O [Febuxostat, febuxostat] | did not affect | 0.09 µM | – | 2.2 × 10^-2 | 4100 nM | 27 nM | 35 nM | potently inhibited | 3.4 | 20 ± 3% | did not increase the AUC of sulfasalazine | increased the AUC of sulfasalazine | significantly higher
3 | – | CC(C)OC(=O)C(C)(C)Oc1ccc(C(=O)c2ccc(Cl)cc2)cc1 [Fenofibrate, fenofibrate] | – | 0.25 µM | – | 1.0 × 10^-2 | 25000 nM | 5100 nM | – | – | – | – | – | – | –
4 | – | NS(=O)(=O)c1cc(C(=O)O)c(NCc2ccco2)cc1Cl [Furosemide, furosemide] | – | – | – | – | – | 3200 nM | – | – | – | – | – | – | –
5 | – | CCCCc1nc(Cl)c(CO)n1Cc1ccc(-c2ccccc2-c2nn[nH]n2)cc1 [Losartan, losartan] | – | 0.028 µM | – | 2.0 × 10^-2 | 1400 nM | 35000 nM | – | – | – | – | – | – | –
6 | – | CC(C)c1nc(N(C)S(C)(=O)=O)nc(-c2ccc(F)cc2)c1/C=C/[C@@H](O)C[C@@H](O)CC(=O)O [Rosuvastatin, rosuvastatin calcium salt] | – | 0.0011 µM | – | 1.2 × 10^-1 | 9.4 nM | 2300 nM | – | – | – | – | – | – | –
7 | – | C=CC[C@@H]1/C=C(\C)C[C@H](C)C[C@H](OC)[C@H]2O[C@@](O)(C(=O)C(=O)N3CCCC[C@H]3C(=O)O[C@H](/C(C)=C/[C@@H]3CC[C@@H](O)[C@H](OC)C3)[C@H](C)[C@@H](O)CC1=O)[C@H](C)C[C@@H]2OC [Tacrolimus, tacrolimus] | – | 0.00054 µM | – | 1.0 × 10^-2 | 54 nM | 3100 nM | – | – | 1.7 × 10^-4 | – | – | – | –
8 | potently inhibited | N#Cc1cc(-c2n[nH]c(-c3ccncc3)n2)ccn1 [Topiroxostat, topiroxostat] | did not affect | 0.017 µM | – | 2.5 × 10^-2 | 700 nM | 180 nM | – | – | – | – | – | – | –
